From ChEMBL document CHEMBL1201862, “PubChem BioAssay data set” (2004)
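Step 1: Grow cells in 96-well plates. Step 2: Expose to compound for 48 hours at 5 concentrations. Step 3: Interpolate endpoints linearly; if unreached, use highest concentration. At the GI50, growth is halved.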 Active and inactive are the calls of the source. Rule as the data show it: active = GI50 up to about 1.1 µM and inactive = higher.

How the values were obtained:
Experiment in all cases: NCI tumour cell line growth inhibition, 48 h
SNB-19 = system: SNB-19
U-251 = system: U-251
OVCAR-4 = system: OVCAR-4
NCI-H460 = system: NCI-H460
K562 = system: K562
UO-31 = system: UO-31
SK-OV-3 = system: SK-OV-3
RXF 393 = system: RXF 393
PC-3 = system: PC-3
SNB-75 = system: SNB-75
DU-145 = system: DU-145
CAKI-1 = system: CAKI-1
TK-10 = system: TK-10
COLO 205 = system: COLO 205
HCC 2998 = system: HCC 2998
Malme-3M = system: Malme-3M
SK-MEL-5 = system: SK-MEL-5
CCRF-CEM = system: CCRF-CEM
OVCAR-8 = system: OVCAR-8
MDA-MB-435 = system: MDA-MB-435

Measured: GI50

O=C1Nc2ccccc2/C1=C\c1c(-c2ccccc2)nc2n1CCS2
inactive: SNB-19 28.5 µM | U-251 20.5 µM | OVCAR-4 29 µM | NCI-H460 17.3 µM | K562 19.5 µM | UO-31 5.68 µM | SK-OV-3 21.4 µM | RXF 393 16.7 µM | PC-3 19.1 µM | SNB-75 12.1 µM | DU-145 13.6 µM | CAKI-1 21.3 µM | TK-10 13.9 µM | COLO 205 29 µM | HCC 2998 16.4 µM | Malme-3M 26.9 µM | SK-MEL-5 16.5 µM | CCRF-CEM 24.7 µM | OVCAR-8 31.3 µM | MDA-MB-435 8.93 µM

CC[C@]1(Cc2ccc(OC)c(OC)c2)CN(S(=O)(=O)c2ccc(C)cc2)C[C@@H]1OC(C)=O
inactive: SNB-19 > 100 µM | U-251 65.6 µM | OVCAR-4 > 100 µM | NCI-H460 > 100 µM | K562 > 100 µM | UO-31 > 100 µM | SK-OV-3 64.6 µM | RXF 393 > 100 µM | PC-3 75.7 µM | SNB-75 41.9 µM | DU-145 > 100 µM | CAKI-1 95.7 µM | TK-10 > 100 µM | COLO 205 > 100 µM | HCC 2998 > 100 µM | Malme-3M > 100 µM | SK-MEL-5 > 100 µM | CCRF-CEM > 100 µM | OVCAR-8 58.7 µM | MDA-MB-435 > 100 µM

C=C(C)[C@@H]1CC=C(CO)CC1 [PERILLYL ALCOHOL]
inactive: SNB-19 348 µM | U-251 125 µM | OVCAR-4 515 µM | NCI-H460 454 µM | K562 30.5 µM | UO-31 410 µM | SK-OV-3 748 µM | RXF 393 93.8 µM | PC-3 > 10 µM | SNB-75 56 µM | DU-145 > 10 µM | CAKI-1 > 10 µM | TK-10 324 µM | COLO 205 199 µM | HCC 2998 753 µM | Malme-3M 324 µM | SK-MEL-5 110 µM | CCRF-CEM 101 µM | OVCAR-8 145 µM | MDA-MB-435 > 10 µM

CN(C)CC1CCC(CN(C)C)C(=O)C1=O (stereo not given)
inactive: SNB-19 17.7 µM | U-251 12.7 µM | OVCAR-4 7.8 µM | NCI-H460 18.8 µM | K562 2.27 µM | UO-31 3.48 µM | SK-OV-3 24 µM | RXF 393 1.82 µM | PC-3 16.7 µM | SNB-75 14.7 µM | DU-145 16.5 µM | CAKI-1 1.99 µM | TK-10 3.6 µM | COLO 205 1.79 µM | HCC 2998 20.9 µM | Malme-3M 1.92 µM | SK-MEL-5 16.3 µM | CCRF-CEM 1.73 µM | OVCAR-8 3.01 µM | MDA-MB-435 17.8 µM

CCN(CC)c1cc2c3c(c1)CCCN3CCC2
inactive: SNB-19 > 10 µM | U-251 > 10 µM | OVCAR-4 > 10 µM | NCI-H460 > 10 µM | K562 > 10 µM | UO-31 > 10 µM | SK-OV-3 > 10 µM | RXF 393 > 10 µM | PC-3 > 10 µM | SNB-75 > 10 µM | DU-145 > 10 µM | CAKI-1 > 10 µM | TK-10 > 10 µM | COLO 205 > 10 µM | HCC 2998 > 10 µM | Malme-3M > 10 µM | SK-MEL-5 > 10 µM | CCRF-CEM > 10 µM | OVCAR-8 > 10 µM | MDA-MB-435 > 10 µM

O=C(O)c1cc2c(cc1CC(Cc1ccccc1)C(=O)O)CCC2 (stereo not given)
inactive: SNB-19 > 100 µM | U-251 > 100 µM | OVCAR-4 > 100 µM | NCI-H460 > 100 µM | K562 > 100 µM | UO-31 > 100 µM | SK-OV-3 > 100 µM | RXF 393 > 100 µM | PC-3 > 100 µM | SNB-75 > 100 µM | DU-145 > 100 µM | CAKI-1 > 100 µM | TK-10 > 100 µM | COLO 205 > 100 µM | HCC 2998 > 100 µM | Malme-3M > 100 µM | SK-MEL-5 > 100 µM | CCRF-CEM > 100 µM | OVCAR-8 > 100 µM | MDA-MB-435 > 100 µM

O=C(/C=C1\Nc2ccc([N+](=O)[O-])cc2N\C1=C/C(=O)c1ccc(F)cc1)c1ccc(F)cc1
inactive: SNB-19 23.1 µM | U-251 10.2 µM | OVCAR-4 > 100 µM | NCI-H460 46.3 µM | K562 22.2 µM | UO-31 > 100 µM | SK-OV-3 17.9 µM | RXF 393 17.9 µM | PC-3 > 100 µM | SNB-75 15.7 µM | DU-145 > 100 µM | CAKI-1 48.1 µM | TK-10 15.3 µM | COLO 205 > 100 µM | HCC 2998 80 µM | Malme-3M > 100 µM | SK-MEL-5 78.5 µM | CCRF-CEM 8.81 µM | OVCAR-8 > 100 µM | MDA-MB-435 > 100 µM

O=C(CCCN1CCC2(CC1)C(=O)NC(=O)N2c1ccccc1)c1ccc(F)cc1
inactive: SNB-19 > 100 µM | U-251 > 100 µM | OVCAR-4 > 100 µM | NCI-H460 > 100 µM | K562 > 10 µM | UO-31 > 100 µM | SK-OV-3 > 100 µM | RXF 393 > 100 µM | PC-3 > 100 µM | SNB-75 > 100 µM | DU-145 > 100 µM | CAKI-1 > 100 µM | TK-10 > 100 µM | COLO 205 > 100 µM | HCC 2998 > 100 µM | Malme-3M > 100 µM | SK-MEL-5 > 100 µM | CCRF-CEM > 100 µM | OVCAR-8 > 100 µM | MDA-MB-435 > 100 µM

COc1cc2oc3c(c(=O)c2c(O)c1/C=C/C(C)C)CCC(C)(C)Oc1cc(O)ccc1-3
inactive: SNB-19 16.1 µM | U-251 20.5 µM | OVCAR-4 14.3 µM | NCI-H460 8.41 µM | K562 4.32 µM | UO-31 13.1 µM | SK-OV-3 16.7 µM | RXF 393 11.5 µM | PC-3 15.2 µM | SNB-75 16 µM | DU-145 33.8 µM | CAKI-1 16.5 µM | TK-10 13.8 µM | COLO 205 16.4 µM | HCC 2998 14.4 µM | Malme-3M 20 µM | SK-MEL-5 18.7 µM | CCRF-CEM 17.3 µM | OVCAR-8 15.5 µM | MDA-MB-435 16.1 µM
